Laboratory results from patent publication US9969715B2, “Compounds useful for treating cancer” (ABIVAX, priority 2012, dated 2018).

Columns and labels:
[1] = tested on: MDA-MB231-luc-D3H2LN cells; assay: Invasion of MDA-MB231-D3H2LN cells into collagen (example 15 = procedure 2, 48 h drug pre-incubation); assay type: cell-based; settings: concentration giving 50% of the anti-invasive effect of 10 μM Y-27632; 48 h pre-incubation, 24 h with 5% FBS; read-out: MDA: Inhib. of invasion: 0.5 × eff. of 10 μM Y-27632 at (μM) av
Description: Effect of Drug Compounds on Invasion of MDA-MB231-D3H2LN Cells into Collagen
Preparation of cells at the bottom of a collagen gel: Cells are suspended in a liquid collagen solution (4° C.), distributed into BSA-coated wells, and then collected at the bottom of the wells by centrifugation. The collagen is then solidified by incubation at 37° C. The BSA coating improves the adhesion of the collagen gel.
Pre-treatment with the compounds to be tested: Concentrated drug solutions are then added on top of the collagen, and cells are pre-incubated for 48 h with the drugs at low serum conditions (0.025% FBS).
Stimulation of invasion: Medium with 5% FBS is then added in order to stimulate invasion of the cells into the collagen gel.
(§1) Viability assay, fixation and staining: Following another 24 h incubation, an MTS assay is performed directly on the cells in the collagen. Then, cells are fixed and nuclei are stained.
Analysis: Finally, plates are analyzed using an automated microscope. Fluorescent beads that have been included into the BSA coating serve to detect the bottom of the wells. Pictures of the stained nuclei are taken at the same level (0 μm) as well as 25 μm and 50 μm above.
Negative control: No drug (just DMSO at equivalent concentration). Positive control: 10 μM Y-27632. To avoid edge effects, cells are added only to the 60 central wells B2-G11; lines A and H receive only collagen without cells (blank for the MTS assay) columns 1 and 12 remain free. Each drug is tested at least in triplicate. The positive and negative controls should be tested in several triplicates at different positions on each plate. Typical plate map (−=negative control, +=positive control, 1-12=12 different test conditions, i. e. different drug compounds or concentrations):
Preparation of 4× concentrated drug solutions in MEM+0.1% FBS+2% Lutrol E-400+0.8% DMSO: Mix each 620 μl MEM+0.1% FBS+2% Lutrol E-400 with each 4 μl DMSO+each 1 μl of the 50 mM compound stock solutions (yielding […] and 0.8% DMSO). If the desired final compound concentration is <5 μM, then further dilute in MEM+0.1% FBS+0.8% DMSO. Negative control: MEM+0.1% FBS+2% Lutrol E-400+0.8% DMSO without any drug. Preparation of the positive control: Mix 4.5 ml MEM+0.1% FBS+2% Lutrol E-400+[…] with 36 μl 5 mM Y-27632 (freshly thawed aliquot) (yielding 40 μM).
add each 33 μl/well of the 4× concentrated drug solutions in MEM+0.1% FBS+2% Lutrol E-400+0.8% DMSO to the corresponding wells (yields 1× concentrated drugs in MEM+0.025% FBS+0.5% Lutrol E-400+0.2% DMSO final)
incubate 48 h at 37° C./5% CO2
incubate 24 h at 37° C./5% CO2
for each well, calculate the mean invasion distance of the counted cells: (25 μm×number of cells at 25 μm+50 μm×number cells at 50 μm)/sum of cells at 0, 25 and 50 μm
invalidate any replicate with a CV≥50% (compound to be re-tested, or assay to be repeated if CV≥50% for the untreated negative control or the compound Y-27632-treated positive control). Y27632 is a selective inhibitor of the Rho-associated protein kinase p160ROCK of the following formula
validate the assay only if the mean invasion distance of the cells treated with 10 μM Y-27632 (positive control) is decreased by ≥40% as compared to the untreated negative control
(§2) Final analysis: Determine the concentration at which a given compound has 50% of the anti-invasive effect of the positive control (10 μM Y-27632). Determine the toxicity (=loss of viability) of the compound under these conditions.
Here, invasion (into collagen) is the concentration of the compound necessary to reach 50% of the inhibition effect compared to 10 μM Y-27632.
Standard operating procedure 2 is exactly the same as the procedure as described in example 15.

[2] = tested on: MDA-MB231-luc-D3H2LN cells; assay: Toxicity assay under normal cell culture conditions (MTS), MDA cells; assay type: cell-based, human; settings: MDA-MB231-luc-D3H2LN cells, MEM+10% FBS, 72 h incubation, MTS
Description: (§3) In order to detect possible toxic effects, all compounds are tested in parallel in a viability assay. The viability assay is performed in parallel on serum-starved cells (as in the invasion assay) vs. cells under normal culture conditions (10% FBS).
(§4) Toxicity Assays (Under Normal Cell Culture Conditions):
(§5) Compounds were prepared as for the invasion assay, and then added to either MDA-MB231-luc-D3H2LN cells (2000/well) under normal culture conditions (MEM+10% FBS), or human PBMC (75000/well, in RPMI+10% FBS+IL-2) in standard 96-well tissue culture plates. After 72 h incubation, a standard MTS assay was performed according to the manufacturer's instructions (Promega Ref. G3581). Compounds were tested at various concentrations (concentration-response curves) in order to determine the concentrations at which 50% toxicity is obtained.

human PBMC = assay: Toxicity assay under normal cell culture conditions (MTS), PBMC; assay type: cell-based; settings: human PBMC, RPMI+10% FBS+IL-2, 72 h incubation, MTS
Description: as §4, §5

[3] = tested on: MDA-MB231-luc-D3H2LN cells; assay: Viability (MTS) assay on the cells in collagen under invasion assay conditions; assay type: cell-based, human; settings: loss of viability at the concentration giving 0.5 × effect of 10 μM Y-27632, invasion assay conditions
Description: as §1, §3
Viability Assay: MTS Assay:
add each 33 μl/well of the MTS reagent, incubate 3-4 h at 37° C./5% CO2
read absorbance at 490 nm (proportional to the viability)
calculate the background-corrected signals by subtracting the means of the background signals in absence of cells from the corresponding signals in presence of cells
normalize the background-corrected signals with respect to the mean signal of the negative controls (no drug) (viabilities are thus expressed in “% of control”)
as §2

Row | Structure (SMILES) | IC50 [1] | MDA tox: 50% tox. at (μM) av [2] | PBMC tox.: 50% tox. at (μM) av (human PBMC) | (+ MDA tox. under these cond.) % tox [3]
1 | O=C(NCCCN1CCCCC1)c1cccc(Nc2cccc(C(=O)Nc3ccncc3)c2)c1 [Compound 7, N-(3-(piperidin-1-yl)propyl)-3-((3-(pyridin-4-ylcarbamoyl)phenyl)amino)benzamide] | 0.11 µM | 25 µM | 38 µM | <10%
2 | O=C(NCCCN1CCOCC1)c1cccc(Nc2cc(C(=O)Nc3ccncc3)ccn2)c1 [Compound 48, 2-((3-((3-morpholinopropyl)carbamoyl)phenyl)amino)-N-(pyridin-4-yl) isonicotinamide] | 0.75 µM | 80 µM | 26 µM | <10%
3 | O=C(Nc1ccncc1)c1ccc(Nc2cccc(S(=O)(=O)NCCN3CCCC3)c2)cc1 [Compound 16, N-(pyridin-4-yl)-4-((3-(N-(2-(pyrrolidin-1-yl)ethyl)sulfamoyl)phenyl)amino)benzamide] | ≥ 4.6 µM | 78 µM | 10 µM | –
4 | CCN(CC)CCCNC(=O)c1cccc(Nc2ccc(C(=O)Nc3ccncc3)cc2)n1 [Compound 36, N-(3-(diethylamino)propyl)-6-((4-(pyridin-4-ylcarbamoyl)phenyl)amino)picolinamide] | > 5 µM | >>100 μM | 58 µM | –
5 | CCN(CC)CCCNC(=O)c1cccc(Nc2ccc(C(=O)Nc3ccncc3)cc2)c1 [Compound 13, N-(3-(diethylamino)propyl)-3-((4-(pyridin-4-ylcarbamoyl)phenyl)amino)benzamide] | > 5 µM | 93 µM | 34 µM | –
6 | O=C(NCCCN1CCOCC1)c1cccc(Nc2ccc(C(=O)Nc3ccncc3)cc2)c1 [Compound 14, N-(3-morpholinopropyl)-3-((4-(pyridin-4-ylcarbamoyl)phenyl)amino)benzamide] | > 2.5 µM | 70 µM | 20 µM | –
7 | CCN(CC)CCCNS(=O)(=O)c1cccc(Nc2cccc(C(=O)N(C)c3ccncc3)c2)c1 [Compound 19, 3-((3-(N-(3-(diethylamino)propyl)sulfamoyl)phenyl)amino)-N-methyl-N-(pyridin-4-yl)benzamide] | > 5 µM | >100 µM | >100 µM | –

Second part, led by results:

Row | IC50 [1] | Structure (SMILES) | MDA tox: 50% tox. at (μM) av [2] | PBMC tox.: 50% tox. at (μM) av (human PBMC) | (+ MDA tox. under these cond.) % tox [3]
8 | 7.5 µM | CCN(CC)CCCNS(=O)(=O)c1cccc(Nc2cc(C(=O)Nc3ccncc3)ccn2)c1 [Compound 46, 2-((3-(N-(3-(diethylamino)propyl)sulfamoyl)phenyl)amino)-N-(pyridin-4-yl)isonicotinamide] | >100 µM | >100 µM | –
9 | 2.2 µM | CCN(CC)CCCNC(=O)c1cccc(Nc2cc(C(=O)Nc3ccncc3)ccn2)c1 [Compound 47, 2-((3-((3-(diethylamino)propyl)carbamoyl)phenyl)amino)-N-(pyridin-4-yl)isonicotinamide] | >100 µM | >100 µM | <10%
10 | > 5 µM | CCN(CC)CCCNC(=O)c1ccc(Nc2cccc(C(=O)Nc3ccncc3)c2)cc1 [Compound 2, 3-((4-((3-(diethylamino)propyl)carbamoyl)phenyl)amino)-N-(pyridin-4-yl)benzamide] | 103 µM | 156 µM | –
11 | 7.5 µM | CN1CCN(C(=O)c2cccc(Nc3cccc(C(=O)Nc4ccncc4)c3)c2)CC1 [Compound 8, 3-((3-(4-methylpiperazine-1-carbonyl)phenyl)amino)-N-(pyridin-4-yl)benzamide] | >>100 μM | – | –
12 | > 5 µM | CN(C(=O)c1cccc(Nc2cccc(S(=O)(=O)NCCCN3CCOCC3)c2)c1)c1ccncc1 [Compound 23, N-methyl-3-((3-(N-(3-morpholinopropyl)sulfamoyl)phenyl)amino)-N-(pyridin-4-yl)benzamide] | >100 µM | >70 µM | –
